The values that follow are results of earlier work, collected in patent US20110208118A1, “COMPOSITIONS AND MEANS FOR TREATING UTERINE LEIOMYOMATA, LEIOMYOMA, MYOMA, UTERINE FIBROIDS, ENDOMETRIOSIS, ADENOMYOSIS AND RELATED DISORDERS BY MIFEPRISTONE” (Bio-Pro Medical Ltd., priority 2007, published 2011).

The series concerns uterine leiomyomata.
The mark [1] stands for this setting: oral mifepristone doses of 5 mg-50 mg.

Take `CC#C[C@]1(O)CC[C@H]2[C@@H]3CCC4=CC(=O)CCC4=C3[C@@H](c3ccc(N(C)C)cc3)C[C@@]21C` [mifepristone]: the “Reduction in volume of leiomyomata, 10 mg vs 20 mg groups” value (10 mg and 20 mg mifepristone daily for 12 weeks, women with large leiomyomata (Yang et al.)) was “equivalent in the two groups”. The “regression in the size of uterine leiomyomata” value (5, 25, and 50 mg of mifepristone daily for 12 weeks (Murphy et al.)) is “clinically significant regression”. For the same compound, under setting [1], the “uterine and uterine fibroids size” value is “reduction in uterine and uterine fibroids size”; the uterine fibroids symptoms entry was “improvement in uterine fibroids symptoms”.
